Measured values from ChEMBL document CHEMBL1159020, “Phytotoxins of Ascochyta hyalospora, Causal Agent of Lambsquarters Leaf Spot” (1992).
The source made the active and inactive calls. The calls are words filed in the database; no cut-off is given here.

How the values were obtained:
Ipomoea [1] = assay: Phytotoxicity against Ipomoea sp. assessed as leaf necrotic area at 25 ug by detached leaf assay; format: functional
Chenopodium album [2] = assay: Phytotoxicity against Lamb's quarters assessed as electrolyte leakage at 500 to 1000 ug/ml; format: functional, organism-based
Sida spinosa [3] = assay: Phytotoxicity against Prickly sida assessed as leaf necrotic area at 25 ug by detached leaf assay; format: functional
Datura stramonium [4] = assay: Phytotoxicity against Jimsonweed assessed as leaf necrotic area at 50 ug by detached leaf assay; format: functional
Sorghum halepense [5] = assay: Phytotoxicity against Johnson grass assessed as leaf necrotic area at 100 ug by detached leaf assay; format: functional
Ambrosia artemisiifolia [6] = assay: Phytotoxicity against rag weed assessed as leaf necrotic area at 100 ug by detached leaf assay; format: functional
Chenopodium album [7] = assay: Phytotoxicity against Lamb's quarters assessed as leaf necrotic area at 25 ug by detached leaf assay; format: functional
Penicillium chrysogenum [8] = assay: Antimicrobial activity against Penicillium notatum at 1000 ug by antibiotic disk assay; format: functional; settings: read-out: Diameter of inhibition zone
[9] = tested on: Pectobacterium carotovorum; assay: Antimicrobial activity against Erwinia carotovora at 500 ug by antibiotic disk assay; format: functional; settings: read-out: Diameter of inhibition zone
Sorghum bicolor [10] = assay: Phytotoxicity against Sorghum bicolor assessed as inhibition of root growth at 1000 ug after 24 hrs root growth assay; format: functional, organism-based
Penicillium chrysogenum [11] = assay: Antimicrobial activity against Penicillium notatum at 500 ug by antibiotic disk assay; format: functional; settings: read-out: Diameter of inhibition zone
Ipomoea [12] = assay: Phytotoxicity against Ipomoea sp. assessed as leaf necrotic area at 50 ug by detached leaf assay; format: functional
[13] = tested on: Curtobacterium flaccumfaciens; assay: Antimicrobial activity against Corynebacterium flaccumfaciens at 500 ug by antibiotic disk assay; format: functional; settings: read-out: Diameter of inhibition zone
Nasturtium officinale [14] = assay: Phytotoxicity against Nasturtium officinale assessed as leaf necrotic area at 100 ug by detached leaf assay; format: functional
Chenopodium album [15] = assay: Phytotoxicity against Lamb's quarters assessed as leaf necrotic area at 50 ug by detached leaf assay; format: functional
[16] = tested on: Agrobacterium tumefaciens; assay: Antimicrobial activity against Agrobacterium tumefaciens at 1000 ug by antibiotic disk assay; format: functional; settings: read-out: Diameter of inhibition zone
Sorghum halepense [17] = assay: Phytotoxicity against Johnson grass assessed as leaf necrotic area at 50 ug by detached leaf assay; format: functional
Senna obtusifolia [18] = assay: Phytotoxicity against Sicklepod assessed as leaf necrotic area at 25 ug by detached leaf assay; format: functional
Sida spinosa [19] = assay: Phytotoxicity against Prickly sida assessed as leaf necrotic area at 50 ug by detached leaf assay; format: functional
Escherichia coli [20] = assay: Antimicrobial activity against Escherichia coli at 500 ug by antibiotic disk assay; format: functional; settings: read-out: Diameter of inhibition zone
Chenopodium album [21] = assay: Phytotoxicity against Lamb's quarters assessed as leaf necrotic area at 100 ug by detached leaf assay; format: functional
Nasturtium officinale [22] = assay: Phytotoxicity against watercress assessed as leaf necrotic area at 25 ug by detached leaf assay; format: functional
[23] = tested on: Pectobacterium carotovorum; assay: Antimicrobial activity against Erwinia carotovora at 1000 ug by antibiotic disk assay; format: functional; settings: read-out: Diameter of inhibition zone
Sorghum bicolor [24] = assay: Phytotoxicity against Sorghum bicolor assessed as leaf necrotic area at 100 ug by detached leaf assay; format: functional
Escherichia coli [25] = assay: Antimicrobial activity against Escherichia coli at 1000 ug by antibiotic disk assay; format: functional; settings: read-out: Diameter of inhibition zone
Sorghum bicolor [26] = assay: Phytotoxicity against Sorghum bicolor assessed as leaf necrotic area at 50 ug by detached leaf assay; format: functional
Nasturtium officinale [27] = assay: Phytotoxicity against watercress assessed as leaf necrotic area at 50 ug by detached leaf assay; format: functional
[28] = tested on: Curtobacterium flaccumfaciens; assay: Antimicrobial activity against Corynebacterium flaccumfaciens at 1000 ug by antibiotic disk assay; format: functional; settings: read-out: Diameter of inhibition zone
Datura stramonium [29] = assay: Phytotoxicity against Jimsonweed assessed as leaf necrotic area at 100 ug by detached leaf assay; format: functional
Datura stramonium [30] = assay: Phytotoxicity against Jimsonweed assessed as leaf necrotic area at 25 ug by detached leaf assay; format: functional
Ambrosia artemisiifolia [31] = assay: Phytotoxicity against rag weed assessed as leaf necrotic area at 50 ug by detached leaf assay; format: functional
Senna obtusifolia [32] = assay: Phytotoxicity against Sicklepod assessed as leaf necrotic area at 100 ug by detached leaf assay; format: functional
Sorghum halepense [33] = assay: Phytotoxicity against Johnson grass assessed as leaf necrotic area at 25 ug by detached leaf assay; format: functional
[34] = tested on: Agrobacterium tumefaciens; assay: Antimicrobial activity against Agrobacterium tumefaciens at 500 ug by antibiotic disk assay; format: functional; settings: read-out: Diameter of inhibition zone
Sida spinosa [35] = assay: Phytotoxicity against Prickly sida assessed as leaf necrotic area at 100 ug by detached leaf assay; format: functional
Aspergillus flavus [36] = assay: Antimicrobial activity against Aspergillus flavus at 500 ug by antibiotic disk assay; format: functional; settings: read-out: Diameter of inhibition zone
Poa nemoralis [37] = assay: Phytotoxicity against bent grass assessed as leaf necrotic area at 25 ug by detached leaf assay; format: functional
Colletotrichum acutatum [38] = assay: Antimicrobial activity against Colletotrichum acutatum at 500 ug by antibiotic disk assay; format: functional; settings: read-out: Diameter of inhibition zone
Sorghum bicolor [39] = assay: Phytotoxicity against Sorghum bicolor assessed as leaf necrotic area at 25 ug by detached leaf assay; format: functional
Aspergillus flavus [40] = assay: Antimicrobial activity against Aspergillus flavus at 1000 ug by antibiotic disk assay; format: functional; settings: read-out: Diameter of inhibition zone
Ipomoea [41] = assay: Phytotoxicity against Ipomoea sp. assessed as leaf necrotic area at 100 ug by detached leaf assay; format: functional
Senna obtusifolia [42] = assay: Phytotoxicity against Sicklepod assessed as leaf necrotic area at 50 ug by detached leaf assay; format: functional
Ambrosia artemisiifolia [43] = assay: Phytotoxicity against rag weed assessed as leaf necrotic area at 25 ug by detached leaf assay; format: functional
Poa nemoralis [44] = assay: Phytotoxicity against bent grass assessed as leaf necrotic area at 50 ug by detached leaf assay; format: functional
Colletotrichum acutatum [45] = assay: Antimicrobial activity against Colletotrichum acutatum at 1000 ug by antibiotic disk assay; format: functional; settings: read-out: Diameter of inhibition zone
Ipomoea [46] = assay: Phytotoxicity against Ipomoea sp. assessed as leaf necrotic area at 10 ug by detached leaf assay; format: functional
Nasturtium officinale [47] = assay: Phytotoxicity against watercress assessed as leaf necrotic area at 10 ug by detached leaf assay; format: functional
Sida spinosa [48] = assay: Phytotoxicity against Prickly sida assessed as leaf necrotic area at 10 ug by detached leaf assay; format: functional
Sorghum bicolor [49] = assay: Phytotoxicity against Sorghum bicolor assessed as leaf necrotic area at 10 ug by detached leaf assay; format: functional
Ambrosia artemisiifolia [50] = assay: Phytotoxicity against rag weed assessed as leaf necrotic area at 10 ug by detached leaf assay; format: functional
Poa nemoralis [51] = assay: Phytotoxicity against bent grass assessed as leaf necrotic area at 10 ug by detached leaf assay; format: functional
Chenopodium album [52] = assay: Phytotoxicity against Lamb's quarters assessed as leaf necrotic area at 10 ug by detached leaf assay; format: functional
Sorghum halepense [53] = assay: Phytotoxicity against Johnson grass assessed as leaf necrotic area at 10 ug by detached leaf assay; format: functional
Senna obtusifolia [54] = assay: Phytotoxicity against Sicklepod assessed as leaf necrotic area at 10 ug by detached leaf assay; format: functional
Datura stramonium [55] = assay: Phytotoxicity against Jimsonweed assessed as leaf necrotic area at 10 ug by detached leaf assay; format: functional

CCC(C)c1occ2c(=O)c(C(=O)O)c(O)cc-2c1C (configuration not stated) [ASCOCHYTINE]
Activity (Ipomoea [1]): 8 mm2
Activity (Chenopodium album [2]): Active
Activity (Sida spinosa [3]): 6 mm2
Activity (Datura stramonium [4]): 15 mm2
Activity (Sorghum halepense [5]): 24 mm2
Activity (Ambrosia artemisiifolia [6]): 8 mm2
Activity (Chenopodium album [7]): 5 mm2
zone of inhibition at 1000 µg/disc (Penicillium chrysogenum [8]): 10 mm
zone of inhibition at 500 µg/disc [9]: 0 mm
Activity (Sorghum bicolor [10]): Active
zone of inhibition at 500 µg/disc (Penicillium chrysogenum [11]): 0 mm
Activity (Ipomoea [12]): 9 mm2
zone of inhibition at 500 µg/disc [13]: 30 mm
Activity (Nasturtium officinale [14]): 20 mm2
Activity (Chenopodium album [15]): 11 mm2
zone of inhibition at 1000 µg/disc [16]: 35 mm
Activity (Sorghum halepense [17]): 10 mm2
Activity (Senna obtusifolia [18]): 9 mm2
Activity (Sida spinosa [19]): 20 mm2
zone of inhibition at 500 µg/disc (Escherichia coli [20]): 8 mm
Activity (Chenopodium album [21]): 19 mm2
Activity (Nasturtium officinale [22]): 2 mm2
zone of inhibition at 1000 µg/disc [23]: 0 mm
Activity (Sorghum bicolor [24]): 28 mm2
zone of inhibition at 1000 µg/disc (Escherichia coli [25]): 10 mm
Activity (Sorghum bicolor [26]): 18 mm2
Activity (Nasturtium officinale [27]): 5 mm2
zone of inhibition at 1000 µg/disc [28]: 42 mm
Activity (Datura stramonium [29]): 22 mm2
Activity (Datura stramonium [30]): 11 mm2
Activity (Ambrosia artemisiifolia [31]): 5 mm2
Activity (Senna obtusifolia [32]): 16 mm2
Activity (Sorghum halepense [33]): 10 mm2
zone of inhibition at 500 µg/disc [34]: 26 mm
Activity (Sida spinosa [35]): 35 mm2
zone of inhibition at 500 µg/disc (Aspergillus flavus [36]): 0 mm
Activity (Poa nemoralis [37]): 7 mm2
zone of inhibition at 500 µg/disc (Colletotrichum acutatum [38]): 18 mm
Activity (Sorghum bicolor [39]): 12 mm2
zone of inhibition at 1000 µg/disc (Aspergillus flavus [40]): 0 mm
Activity (Ipomoea [41]): 9 mm2
Activity (Senna obtusifolia [42]): 13 mm2
Activity (Ambrosia artemisiifolia [43]): 5 mm2
Activity (Poa nemoralis [44]): 8 mm2
zone of inhibition at 1000 µg/disc (Colletotrichum acutatum [45]): 20 mm

C[C@H]1OC(=O)/C=C\C(=O)/C=C/[C@H]2O[C@@H]12 [PYRENOLIDE A]
Activity (Ipomoea [46]): 0 mm2
Activity (Ipomoea [1]): 0 mm2
Activity (Chenopodium album [2]): Active
Activity (Sida spinosa [3]): 0 mm2
Activity (Datura stramonium [4]): 2 mm2
Activity (Chenopodium album [7]): 5 mm2
zone of inhibition at 1000 µg/disc (Penicillium chrysogenum [8]): 22 mm
Activity (Nasturtium officinale [47]): 0 mm2
Activity (Sida spinosa [48]): 0 mm2
zone of inhibition at 500 µg/disc [9]: 0 mm
Activity (Sorghum bicolor [10]): Active
zone of inhibition at 500 µg/disc (Penicillium chrysogenum [11]): 16 mm
Activity (Ipomoea [12]): 3 mm2
zone of inhibition at 500 µg/disc [13]: 22 mm
Activity (Chenopodium album [15]): 13 mm2
zone of inhibition at 1000 µg/disc [16]: 22 mm
Activity (Sorghum halepense [17]): 18 mm2
Activity (Senna obtusifolia [18]): 0 mm2
Activity (Sida spinosa [19]): 4 mm2
zone of inhibition at 500 µg/disc (Escherichia coli [20]): 0 mm
Activity (Nasturtium officinale [22]): 0 mm2
zone of inhibition at 1000 µg/disc [23]: 0 mm
zone of inhibition at 1000 µg/disc (Escherichia coli [25]): 0 mm
Activity (Sorghum bicolor [26]): 10 mm2
Activity (Nasturtium officinale [27]): 1 mm2
Activity (Sorghum bicolor [49]): 2 mm2
zone of inhibition at 1000 µg/disc [28]: 34 mm
Activity (Datura stramonium [30]): 0 mm2
Activity (Ambrosia artemisiifolia [50]): 0 mm2
Activity (Ambrosia artemisiifolia [31]): 6 mm2
Activity (Poa nemoralis [51]): 0 mm2
Activity (Sorghum halepense [33]): 7 mm2
zone of inhibition at 500 µg/disc [34]: 4 mm
zone of inhibition at 500 µg/disc (Aspergillus flavus [36]): 0 mm
Activity (Chenopodium album [52]): 2 mm2
Activity (Poa nemoralis [37]): 0 mm2
Activity (Sorghum halepense [53]): 3 mm2
zone of inhibition at 500 µg/disc (Colletotrichum acutatum [38]): 21 mm
Activity (Senna obtusifolia [54]): 0 mm2
Activity (Sorghum bicolor [39]): 8 mm2
zone of inhibition at 1000 µg/disc (Aspergillus flavus [40]): 0 mm
Activity (Datura stramonium [55]): 0 mm2
Activity (Senna obtusifolia [42]): 2 mm2
Activity (Ambrosia artemisiifolia [43]): 3 mm2
Activity (Poa nemoralis [44]): 0 mm2
zone of inhibition at 1000 µg/disc (Colletotrichum acutatum [45]): 32 mm

CCC(C)c1oc(CC(C)O)cc(=O)c1C (configuration not stated) [HYALOPYRONE]
Activity (Datura stramonium [4]): 0 mm2
Activity (Sorghum halepense [5]): 15 mm2
Activity (Ambrosia artemisiifolia [6]): 18 mm2
zone of inhibition at 500 µg/disc [9]: 0 mm
zone of inhibition at 500 µg/disc (Penicillium chrysogenum [11]): 12 mm
Activity (Ipomoea [12]): 5 mm2
zone of inhibition at 500 µg/disc [13]: 12 mm
Activity (Nasturtium officinale [14]): 7 mm2
Activity (Chenopodium album [15]): 4 mm2
Activity (Sorghum halepense [17]): 11 mm2
Activity (Sida spinosa [19]): 7 mm2
zone of inhibition at 500 µg/disc (Escherichia coli [20]): 0 mm
Activity (Chenopodium album [21]): 5 mm2
Activity (Sorghum bicolor [24]): 23 mm2
Activity (Sorghum bicolor [26]): 18 mm2
Activity (Nasturtium officinale [27]): 5 mm2
Activity (Datura stramonium [29]): 3 mm2
Activity (Ambrosia artemisiifolia [31]): 10 mm2
Activity (Senna obtusifolia [32]): 4 mm2
zone of inhibition at 500 µg/disc [34]: 0 mm
Activity (Sida spinosa [35]): 13 mm2
zone of inhibition at 500 µg/disc (Aspergillus flavus [36]): 10 mm
zone of inhibition at 500 µg/disc (Colletotrichum acutatum [38]): 16 mm
Activity (Ipomoea [41]): 8 mm2
Activity (Senna obtusifolia [42]): 3 mm2
Activity (Poa nemoralis [44]): 6 mm2
